We go through two compounds from patent US20110152313A1 (MACQUARIE UNIVERSITY, priority 2008, published 2011).

Common to all, as to assay: kinase binding constant, 11-point dose response (T7 phage, qPCR)
Common to all, as to settings: >30 = no inhibition at highest concentration tested

For test [1], the target named is AAK1 (Homo sapiens, UniProt Q2M2I8). On the procedure:
(§1) Kinase inhibition studies were performed by methods well known in the prior art (Fabian, M. A. et al. Nat. Biotechnol. 2005, 23, 329). Briefly, kinase-tagged T7 phage strains were prepared in an E. coli host derived from the BL21 strain. E. coli were grown to log-phase and infected with T7 phage and incubated with shaking at 32° C. until lysis. The lysates were centrifuged and filtered to remove cell debris. […] The liganded beads were blocked with excess biotin and washed with blocking buffer (SeaBlock (Pierce); 1% BSA, 0.05% Tween 20, 1 mM DTT) to remove unbound ligand and to reduce non-specific binding. […] All reactions were performed in polystyrene 96-well plates in a final volume of 0.135 ml. […] The kinase concentration in the eluates was measured by qPCR.
(§2) An 11-point 3-fold serial dilution of each test compound (from 30 μM to 0.5 nM) was prepared in 100% DMSO at 100× final test concentration and subsequently diluted to 1× in the assay (final DMSO concentration=1%). Binding constants (KDS) were calculated with a standard dose-response curve using a 5-point sigmoidal (Hill) equation.

In test [2] the target is CAMK2G (Homo sapiens, UniProt Q13555). On the procedure:
as §1, §2

Test [3] deals with CAMKK1 (Homo sapiens, UniProt Q8N5S9). The procedure:
as §1, §2

Test [4] addresses CAMKK2 (Homo sapiens, UniProt Q96RR4). The procedure:
as §1, §2

Test [5] addresses CDK7 (Homo sapiens, UniProt P50613). On the procedure: as §1, §2
Test [6] concerns the target T1, RSK1 (Homo sapiens, UniProt Q15418).
T1 construct: RPS6KA1(Kin.Dom.2-C-terminal)
The procedure: as §1, §2

Test [7] has as its target BMPR1B (Homo sapiens, UniProt O00238). The procedure: as §1, §2
Test [8] addresses CLK2 (Homo sapiens, UniProt P49760). The procedure:
as §1, §2

In test [9] the target is T2, DYRK2 (Homo sapiens, UniProt Q92630).
T2 sequence (Q92630 1-601): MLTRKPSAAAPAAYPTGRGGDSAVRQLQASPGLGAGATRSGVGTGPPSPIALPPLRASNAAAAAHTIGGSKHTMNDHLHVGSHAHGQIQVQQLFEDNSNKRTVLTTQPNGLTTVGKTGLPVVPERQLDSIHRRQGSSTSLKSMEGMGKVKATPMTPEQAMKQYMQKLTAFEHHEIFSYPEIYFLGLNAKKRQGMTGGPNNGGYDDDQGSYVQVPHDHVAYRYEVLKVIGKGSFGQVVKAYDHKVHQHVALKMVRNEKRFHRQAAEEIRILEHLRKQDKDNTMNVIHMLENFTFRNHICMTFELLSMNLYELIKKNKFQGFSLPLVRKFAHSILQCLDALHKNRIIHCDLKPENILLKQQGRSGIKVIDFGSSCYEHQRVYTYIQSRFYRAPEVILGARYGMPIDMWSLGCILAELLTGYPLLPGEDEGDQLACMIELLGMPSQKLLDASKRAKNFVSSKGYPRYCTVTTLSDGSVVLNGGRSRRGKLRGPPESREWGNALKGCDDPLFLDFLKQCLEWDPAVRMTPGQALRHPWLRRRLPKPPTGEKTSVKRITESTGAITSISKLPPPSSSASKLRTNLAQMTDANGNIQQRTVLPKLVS
On the procedure:
as §1, §2

Test [10] concerns the target T3, IRAK3 (Homo sapiens, UniProt Q9Y616).
T3 sequence (Q9Y616 1-596): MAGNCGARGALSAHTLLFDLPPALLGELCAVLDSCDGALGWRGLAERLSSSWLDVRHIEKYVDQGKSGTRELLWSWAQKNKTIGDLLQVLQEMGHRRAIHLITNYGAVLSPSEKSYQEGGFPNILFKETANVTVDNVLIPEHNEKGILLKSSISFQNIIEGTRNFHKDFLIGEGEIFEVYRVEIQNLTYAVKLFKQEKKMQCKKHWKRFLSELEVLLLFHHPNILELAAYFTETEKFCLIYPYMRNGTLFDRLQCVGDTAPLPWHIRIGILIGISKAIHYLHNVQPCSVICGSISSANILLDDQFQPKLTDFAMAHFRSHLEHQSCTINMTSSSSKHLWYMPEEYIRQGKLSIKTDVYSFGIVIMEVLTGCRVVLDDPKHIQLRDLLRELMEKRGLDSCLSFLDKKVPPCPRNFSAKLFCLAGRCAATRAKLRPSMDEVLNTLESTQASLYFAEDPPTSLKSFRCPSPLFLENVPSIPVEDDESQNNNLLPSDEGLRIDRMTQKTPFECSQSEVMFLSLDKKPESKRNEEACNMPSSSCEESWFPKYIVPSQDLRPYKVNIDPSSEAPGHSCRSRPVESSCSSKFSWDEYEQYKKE
The procedure: as §1, §2

In test [11] the target is PIK4CB (Homo sapiens, UniProt Q9UBF8). On the procedure:
as §1, §2

Sequence of CAMKK1 (Q8N5S9 whole entry): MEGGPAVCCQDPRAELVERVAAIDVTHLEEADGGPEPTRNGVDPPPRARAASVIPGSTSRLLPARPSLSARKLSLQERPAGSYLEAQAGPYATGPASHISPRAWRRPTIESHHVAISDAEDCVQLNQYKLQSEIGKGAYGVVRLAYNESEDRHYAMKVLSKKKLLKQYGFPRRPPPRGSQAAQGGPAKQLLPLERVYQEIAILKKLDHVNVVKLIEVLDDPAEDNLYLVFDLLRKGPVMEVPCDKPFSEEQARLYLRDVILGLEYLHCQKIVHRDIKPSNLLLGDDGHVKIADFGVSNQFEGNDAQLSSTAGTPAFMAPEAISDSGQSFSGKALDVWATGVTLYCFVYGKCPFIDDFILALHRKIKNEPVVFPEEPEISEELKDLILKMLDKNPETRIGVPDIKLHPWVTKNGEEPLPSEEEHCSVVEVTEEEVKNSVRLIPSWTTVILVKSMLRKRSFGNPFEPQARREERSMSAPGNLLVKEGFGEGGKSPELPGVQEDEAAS
Sequence of AAK1 (Q2M2I8 whole entry): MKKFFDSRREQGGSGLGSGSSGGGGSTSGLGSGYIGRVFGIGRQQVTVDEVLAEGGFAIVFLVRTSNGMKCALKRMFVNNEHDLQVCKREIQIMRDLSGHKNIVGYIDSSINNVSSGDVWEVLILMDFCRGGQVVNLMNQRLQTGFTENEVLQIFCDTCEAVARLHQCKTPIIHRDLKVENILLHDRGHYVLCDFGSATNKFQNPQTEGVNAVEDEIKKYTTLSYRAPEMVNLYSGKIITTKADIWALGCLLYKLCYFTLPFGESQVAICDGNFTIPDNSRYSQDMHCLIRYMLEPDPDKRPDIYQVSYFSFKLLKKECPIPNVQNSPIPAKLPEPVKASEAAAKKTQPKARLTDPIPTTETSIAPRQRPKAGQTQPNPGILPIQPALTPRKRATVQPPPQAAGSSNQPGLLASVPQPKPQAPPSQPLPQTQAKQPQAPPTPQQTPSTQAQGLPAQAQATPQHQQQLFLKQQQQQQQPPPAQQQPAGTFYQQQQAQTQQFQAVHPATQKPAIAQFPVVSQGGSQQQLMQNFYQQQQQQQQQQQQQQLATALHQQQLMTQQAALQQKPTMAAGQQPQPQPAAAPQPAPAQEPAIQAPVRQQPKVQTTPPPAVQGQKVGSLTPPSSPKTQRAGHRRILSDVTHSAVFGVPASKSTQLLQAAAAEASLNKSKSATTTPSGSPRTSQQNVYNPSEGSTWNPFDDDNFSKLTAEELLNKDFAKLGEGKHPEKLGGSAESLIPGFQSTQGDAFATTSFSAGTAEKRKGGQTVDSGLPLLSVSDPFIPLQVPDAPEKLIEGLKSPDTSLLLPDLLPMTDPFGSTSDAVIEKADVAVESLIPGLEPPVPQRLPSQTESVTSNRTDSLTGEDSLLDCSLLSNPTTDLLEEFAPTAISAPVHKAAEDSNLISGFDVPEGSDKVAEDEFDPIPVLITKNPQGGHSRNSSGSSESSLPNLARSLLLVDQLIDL
Sequence of BMPR1B (O00238 14-502): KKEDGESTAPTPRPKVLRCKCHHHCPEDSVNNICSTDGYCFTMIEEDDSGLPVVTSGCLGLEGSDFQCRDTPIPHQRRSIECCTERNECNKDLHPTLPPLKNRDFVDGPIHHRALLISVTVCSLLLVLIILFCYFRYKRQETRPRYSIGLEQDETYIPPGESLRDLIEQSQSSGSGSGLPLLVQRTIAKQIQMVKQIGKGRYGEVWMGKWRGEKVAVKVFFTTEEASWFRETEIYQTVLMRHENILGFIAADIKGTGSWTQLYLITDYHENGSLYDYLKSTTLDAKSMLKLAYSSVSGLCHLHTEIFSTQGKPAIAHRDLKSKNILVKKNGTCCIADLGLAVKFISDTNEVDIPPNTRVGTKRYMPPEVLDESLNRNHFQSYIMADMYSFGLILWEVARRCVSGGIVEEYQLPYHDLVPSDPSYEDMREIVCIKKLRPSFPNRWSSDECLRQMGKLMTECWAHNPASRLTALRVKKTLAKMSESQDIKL
Sequence of CLK2 (P49760 whole entry): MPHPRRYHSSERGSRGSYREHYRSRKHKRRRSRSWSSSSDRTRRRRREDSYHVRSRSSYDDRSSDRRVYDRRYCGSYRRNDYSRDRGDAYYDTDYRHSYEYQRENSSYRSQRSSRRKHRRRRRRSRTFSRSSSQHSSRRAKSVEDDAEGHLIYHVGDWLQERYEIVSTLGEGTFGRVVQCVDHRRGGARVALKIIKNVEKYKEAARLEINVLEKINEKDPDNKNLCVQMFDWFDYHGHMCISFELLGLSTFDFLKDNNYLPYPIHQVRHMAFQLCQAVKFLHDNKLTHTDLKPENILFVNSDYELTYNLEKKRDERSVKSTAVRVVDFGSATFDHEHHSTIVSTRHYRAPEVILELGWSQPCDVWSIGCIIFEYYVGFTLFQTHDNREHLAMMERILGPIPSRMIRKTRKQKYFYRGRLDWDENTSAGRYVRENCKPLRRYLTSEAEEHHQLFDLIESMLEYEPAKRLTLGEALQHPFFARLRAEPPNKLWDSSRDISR
Sequence of CAMKK2 (Q96RR4 whole entry): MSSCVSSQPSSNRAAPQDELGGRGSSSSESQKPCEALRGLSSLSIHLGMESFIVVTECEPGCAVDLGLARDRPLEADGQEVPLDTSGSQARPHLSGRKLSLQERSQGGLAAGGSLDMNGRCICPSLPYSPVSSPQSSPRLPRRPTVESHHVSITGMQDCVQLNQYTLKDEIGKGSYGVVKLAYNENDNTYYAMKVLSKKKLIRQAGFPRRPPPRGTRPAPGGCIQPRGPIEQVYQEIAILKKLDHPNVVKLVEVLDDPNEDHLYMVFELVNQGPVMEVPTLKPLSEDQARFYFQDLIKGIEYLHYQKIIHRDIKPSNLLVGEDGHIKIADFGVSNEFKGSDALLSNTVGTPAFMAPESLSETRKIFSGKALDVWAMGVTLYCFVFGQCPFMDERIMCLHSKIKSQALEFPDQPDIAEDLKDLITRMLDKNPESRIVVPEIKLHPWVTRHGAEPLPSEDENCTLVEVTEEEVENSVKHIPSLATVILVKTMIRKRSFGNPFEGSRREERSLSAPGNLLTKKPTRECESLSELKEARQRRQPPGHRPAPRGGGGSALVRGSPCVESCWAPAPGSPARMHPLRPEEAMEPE
T1 sequence (Q15418 whole entry): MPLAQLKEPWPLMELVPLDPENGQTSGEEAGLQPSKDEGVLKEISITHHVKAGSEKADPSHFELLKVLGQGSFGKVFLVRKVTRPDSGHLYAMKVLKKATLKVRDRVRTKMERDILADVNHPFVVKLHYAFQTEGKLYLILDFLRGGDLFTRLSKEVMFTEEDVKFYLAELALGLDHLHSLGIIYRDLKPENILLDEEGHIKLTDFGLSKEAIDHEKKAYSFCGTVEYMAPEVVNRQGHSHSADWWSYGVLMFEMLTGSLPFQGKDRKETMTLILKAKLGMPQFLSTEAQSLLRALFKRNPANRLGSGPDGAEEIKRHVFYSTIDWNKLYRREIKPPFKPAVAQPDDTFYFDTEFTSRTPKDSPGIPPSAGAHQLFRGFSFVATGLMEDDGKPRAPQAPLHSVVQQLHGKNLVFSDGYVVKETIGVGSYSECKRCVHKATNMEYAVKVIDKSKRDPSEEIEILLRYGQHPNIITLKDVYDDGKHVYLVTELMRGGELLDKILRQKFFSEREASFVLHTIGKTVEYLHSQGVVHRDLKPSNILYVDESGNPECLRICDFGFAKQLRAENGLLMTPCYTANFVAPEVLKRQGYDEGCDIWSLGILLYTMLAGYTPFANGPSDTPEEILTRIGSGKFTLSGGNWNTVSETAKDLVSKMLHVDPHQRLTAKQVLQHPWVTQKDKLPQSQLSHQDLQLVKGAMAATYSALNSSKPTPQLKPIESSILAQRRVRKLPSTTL
Sequence of CDK7 (P50613 whole entry): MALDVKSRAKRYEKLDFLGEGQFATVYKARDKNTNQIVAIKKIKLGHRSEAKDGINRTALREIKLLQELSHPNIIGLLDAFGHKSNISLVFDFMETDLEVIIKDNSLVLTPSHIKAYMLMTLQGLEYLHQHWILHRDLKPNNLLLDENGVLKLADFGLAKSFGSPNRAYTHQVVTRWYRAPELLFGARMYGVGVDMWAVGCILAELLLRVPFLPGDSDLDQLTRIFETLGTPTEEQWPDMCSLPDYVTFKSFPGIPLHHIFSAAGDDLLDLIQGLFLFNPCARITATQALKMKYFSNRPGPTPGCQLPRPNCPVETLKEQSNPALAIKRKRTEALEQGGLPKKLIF
Sequence of PIK4CB (Q9UBF8 whole entry, species assumed): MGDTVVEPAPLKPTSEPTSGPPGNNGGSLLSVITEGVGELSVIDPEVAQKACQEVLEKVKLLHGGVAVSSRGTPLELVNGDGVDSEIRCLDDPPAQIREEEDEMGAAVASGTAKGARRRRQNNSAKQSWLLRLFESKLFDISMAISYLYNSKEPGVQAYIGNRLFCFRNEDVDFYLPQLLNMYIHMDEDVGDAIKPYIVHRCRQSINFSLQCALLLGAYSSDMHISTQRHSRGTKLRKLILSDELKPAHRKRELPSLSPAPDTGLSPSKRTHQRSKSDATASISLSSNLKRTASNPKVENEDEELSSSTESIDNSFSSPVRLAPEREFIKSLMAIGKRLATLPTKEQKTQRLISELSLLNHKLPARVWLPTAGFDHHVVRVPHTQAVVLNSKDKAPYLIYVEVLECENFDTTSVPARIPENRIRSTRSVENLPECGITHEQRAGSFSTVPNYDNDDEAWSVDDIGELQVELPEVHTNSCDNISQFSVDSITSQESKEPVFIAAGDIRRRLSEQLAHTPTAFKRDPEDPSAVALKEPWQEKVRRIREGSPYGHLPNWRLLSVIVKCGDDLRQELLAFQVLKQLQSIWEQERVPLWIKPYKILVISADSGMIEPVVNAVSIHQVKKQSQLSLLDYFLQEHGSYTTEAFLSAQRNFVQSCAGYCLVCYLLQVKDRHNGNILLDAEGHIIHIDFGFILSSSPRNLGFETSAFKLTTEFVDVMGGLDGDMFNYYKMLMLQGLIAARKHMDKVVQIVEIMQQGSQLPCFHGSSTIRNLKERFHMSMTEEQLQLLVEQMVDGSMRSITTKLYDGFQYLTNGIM

Consider `Nc1nc2c(-c3ccccn3)nccc2[nH]1` [drawing 35, 4-(pyrid-2-yl)-1H-imidazo[4,5-c]pyridin-2-amine], for which the Kd (commonly the free concentration of one partner at which half of the binding sites on the other are occupied at equilibrium, for simple one-to-one binding) is 1500 nM in test [1]; > 30000 nM in [2]; > 30000 nM in test [3]; > 30000 nM in [4]; 7500 nM in [5]; 530 nM in test [6].
Turning to `Nc1nc2c(-c3cnc4ccccc4c3)nccc2[nH]1` [drawing 36, 4-(quinolin-3-yl)-1H-imidazo[4,5-c]pyridin-2-amine], the Kd in test [7] came to 7200 nM; in test [8], 1200 nM; in test [9], 970 nM; in test [10], 8900 nM; in test [11] it was 350 nM.
